Results published in patent publication US10761045B2, “Sensor, sensor system, method of manufacturing sensor, and method of measuring concentration of target substance” (PHC Holdings Corporation, priority 2010, dated 2020).
Converted amounts (≈) assume the structure as drawn. Like-named read-outs stand apart in the source and are kept apart here.

Assays:
[1] = Stability test (exposure test) of sensor at 30° C., 80% humidity; details: for change in the response current value after the exposure test: 24 hours at 30° C., 80% relative humidity; for Sensor stability % change in response current value between before and after 24 hours exposure at 30° C. and 80% humidity: additive in reagent layer, additive conc. 1.0-5.0 mM
Protocol: Sensors were manufactured in the same manner as described in section [1-5] using the reagent solutions prepared above. The sensors manufactured were exposed to an environment of high temperature and humidity (30° C., 80% relative humidity) for 24 hours. Response current values of the pre- and post-exposed sensors were measured for a series of glucose solutions of known concentrations.
Sensors were manufactured using fresh reagent solutions having the same compositions as described above. The sensors were subjected to an exposure experiment where they were allowed to stand for 24 hours at 30° C. and 80% humidity. Response current values of non-exposed sensors (i.e., sensors stored under the ambient condition (25° C., 5% humidity) for 24 hours) and the exposed sensors were measured for a series of glucose solutions of known concentrations.

[2] = Storage stability of reagent solution (response current of sensors made with stored vs fresh reagent solution); assay type: physicochemical
From the text: A sensor having the configuration illustrated in FIG. 1 was manufactured. The detailed procedure will now be described. First, by sputtering palladium, 8 nm-thick conductive layer 3 was deposited on substrate 2 which was 30 mm in length, 7 mm in width and 0.2 mm in thickness and which contained polyethylene terephthalate as its main component. Thereafter, a 0.1 mm-width non-conductive track was formed by laser ablation, to form electrodes 31 to 33. Electrode 31 was designed to function as a working electrode, electrode 32 as a counter electrode, and electrode 33 as a sensing electrode.
Using a microsyringe, 1.2 μL of each reagent solution was applied to form reagent layer 4 in a shape of 2.2 mm diameter-circular. After formation of reagent layer 4, spacer 5 (0.145 mm thick) having a cut-out with a length of 3.4 mm a width of 1.2 mm and cover 6 were sequentially attached to the substrate having the electrodes formed thereon. In this way a sensor was manufactured that has a capillary having a volume of 0.6 μL. […]
Response current values of each sensor were measured using a series of glucose solutions of known concentrations.
By adding as an additive imidazole, histamine, histidine, 2-aminoimidazole, 4,5-bis(hydroxymethyl)imidazole, 1,2,4-triazole, 3-amino-1,2,4-triazole, 4-amino-1,2,4-triazole, 3,5-diamino-1,2,4-triazole, 2-methylimidazole, or 1,2-dimethylimidazole, reagent solutions were prepared that contain the same composition as reagent solution C except the type and concentration of the additive. The concentrations of the additives are as indicated in Tables below and the accompanying drawings.
Further, sensors were manufactured using the same reagent solutions stored at 25° C. and 5% humidity for 24 hours after preparation. […]

[3] = Redox / oxidation potentials stated in the description; assay type: physicochemical
[4] = Cyclic voltammetry of mediators, redox potential vs Ag|AgCl; assay type: physicochemical; details: reference Ag|AgCl; for Eox (V): potential at peak oxidation current; for Ered (V): potential at peak reduction current; for EO′ (V) [(Ered + Eox)/2]: redox potential, average of Ered and Eox
Protocol: Redox potential (EO′) was calculated in the following procedure. Specifically, cyclic voltammetry using Ag|AgCl as the reference electrode was performed under the same conditions as those in Examples to be described later. Redox potential (EO′) was found as an average of the potential value at the peak oxidation current (Eox) and the potential value at the peak reduction current (Ered), i.e., [(Ered+Eox)/2].
Cyclic voltammetry was performed for the resultant reagent solution using the aforementioned sensor electrode. As a reference electrode, a silver/silver chloride (saturated potassium chloride) electrode (hereinafter “Ag|AgCl”) was used. The reference electrode was led to vent hole 61 of the sensor electrode via a salt bridge. A potentiostat was used for measurement. The electrodes and the potentiostat used were those commonly used in electrochemistry. These instruments can be purchased from BAS Inc., for example.
In cyclic voltammetry, a potential applied to the working electrode was swept linearly with respect to time. The sweeping rate was set to 0.1 V/second. First, a first potential was applied to the working electrode, and the electrode potential was swept toward negative potentials from the first potential to a second potential. The electrode potential was then swept back from the second potential to the first potential toward positive potentials. The first and second potentials were 0.2 V and […], respectively, […]

[5] = Solubility in water of mediators; assay type: physicochemical; details: for solubility: water
From the text: Solubilities in water of Compounds A, B, H′, I, I′ and J and disodium 9,10-phenanthrenequinone 2,7-disulfonate are given in Table 1.

[6] = cited from earlier work; for redox potential: coenzymes and phenanthroline quinone, background values

c1nc[nH]n1 [1,2,4-Triazole]
change in the response current value after the exposure test [1]: relatively small change in the response current value | Sensor stability % change in response current value between before and after 24 hours exposure at 30° C. and 80% humidity [1]: −14% | Reagent solution stability % change in response current value between before and after 24 hours storage at 25° C. [2]: −12%

Cc1nccn1C [1,2-Dimethylimidazole]
Sensor stability % change in response current value between before and after 24 hours exposure at 30° C. and 80% humidity [1]: −44% | Reagent solution stability % change in response current value between before and after 24 hours storage at 25° C. [2]: 2%

O=C1C=C(S(=O)(=O)O)c2ccccc2C1=O [1,2-naphthoquinone-4-sulfonic acid]
redox potential of exemplary electron acceptors [3]: −16 mV

Nc1ncc[nH]1 [2-Aminoimidazole]
change in the response current value after the exposure test [1]: relatively small change in the response current value | Sensor stability % change in response current value between before and after 24 hours exposure at 30° C. and 80% humidity [1]: −7% | Reagent solution stability % change in response current value between before and after 24 hours storage at 25° C. [2]: −6%

Cc1ncc[nH]1 [2-Methylimidazle, 2-methylimidazole]
Sensor stability % change in response current value between before and after 24 hours exposure at 30° C. and 80% humidity [1]: −44% | Reagent solution stability % change in response current value between before and after 24 hours storage at 25° C. [2]: 1%

Nc1n[nH]c(N)n1 [3,5-Diamino-1,2,4-triazole]
change in the response current value after the exposure test [1]: relatively small change in the response current value | Sensor stability % change in response current value between before and after 24 hours exposure at 30° C. and 80% humidity [1]: −2% | Reagent solution stability % change in response current value between before and after 24 hours storage at 25° C. ([2]; additive in reagent solution C composition (PQSA, FAD-GDH), additive conc. 1.0-5.0 mM): −1%

Nc1nc[nH]n1 [3-Amino-1,2,4-triazole]
change in the response current value after the exposure test [1]: relatively small change in the response current value | Sensor stability % change in response current value between before and after 24 hours exposure at 30° C. and 80% humidity [1]: −4% | Reagent solution stability % change in response current value between before and after 24 hours storage at 25° C. [2]: 0%

OCc1nc[nH]c1CO [4,5-Bis(hydroxymethyl) imidazole, 4,5-bis(hydroxymethyl)imidazole]
change in the response current value after the exposure test [1]: relatively small change in the response current value | Sensor stability % change in response current value between before and after 24 hours exposure at 30° C. and 80% humidity [1]: −11% | Reagent solution stability % change in response current value between before and after 24 hours storage at 25° C. [2]: −14%

Nn1cnnc1 [4-Amino-1,2,4-triazole]
change in the response current value after the exposure test [1]: relatively small change in the response current value | Sensor stability % change in response current value between before and after 24 hours exposure at 30° C. and 80% humidity [1]: −4% | Reagent solution stability % change in response current value between before and after 24 hours storage at 25° C. [2]: −6%

O=C1C(=O)c2cc(S(=O)(=O)O)ccc2-c2ccccc21 [9,10-phenanthrenequinone-2-sulfonic acid]
redox potential of exemplary electron acceptors [3]: −140 mV

O=C1C(=O)c2ccccc2-c2ccccc21 [9,10-phenanthrenequinone]
redox potential of exemplary electron acceptors [3]: −180 mV

N=C(N)NCCC[C@H](N)C(=O)O [Arginine, reference compound]
Sensor stability % change in response current value between before and after 24 hours exposure at 30° C. and 80% humidity [1]: −12% | Reagent solution stability % change in response current value between before and after 24 hours storage at 25° C. [2]: −25%

NCCCCN [Butanediamine, reference compound]
Sensor stability % change in response current value between before and after 24 hours exposure at 30° C. and 80% humidity [1]: −51%

O=C1C(=O)c2cc([N+](=O)[O-])ccc2-c2ccccc21 [Compound A]
Eox (V) [4]: −0.10 V | Ered (V) [4]: −0.13 V | EO′ (V) [(Ered + Eox)/2] [4]: −0.12 V | solubility ([5]; read-out: Solubility in water): 1 mM (≈ 253 µg/mL)

Nc1ccc2c(c1)C(=O)C(=O)c1ccccc1-2 [Compound B]
Eox (V) [4]: −0.19 V | Ered (V) [4]: −0.23 V | EO′ (V) [(Ered + Eox)/2] [4]: −0.21 V | solubility ([5]; read-out: Solubility in water): 1 mM (≈ 223 µg/mL)

O=C1C(=O)c2cc(-c3ccc(S(=O)(=O)[O-])cc3)ccc2-c2ccccc21.[Na+] [Compound H′]
Eox (V) [4]: −0.14 V | Ered (V) [4]: −0.21 V | EO′ (V) [(Ered + Eox)/2] [4]: −0.18 V | solubility ([5]; read-out: Solubility in water): 20 mM

O=C([O-])c1ccc(-c2ccc3c(c2)C(=O)C(=O)c2ccccc2-3)cc1.[Na+] [Compound I]
Eox (V) [4]: −0.14 V | Ered (V) [4]: −0.22 V | EO′ (V) [(Ered + Eox)/2] [4]: −0.18 V | solubility ([5]; read-out: Solubility in water): 5 mM

O=C(NCCS(=O)(=O)[O-])c1ccc(-c2ccc3c(c2)C(=O)C(=O)c2ccccc2-3)cc1.[Na+] [Compound I′]
Eox (V) [4]: −0.14 V | Ered (V) [4]: −0.22 V | EO′ (V) [(Ered + Eox)/2] [4]: −0.18 V | solubility ([5]; read-out: Solubility in water): 20 mM

O=C([O-])c1cc(C(=O)[O-])cc(-c2ccc3c(c2)C(=O)C(=O)c2ccccc2-3)c1.[Na+].[Na+] [Compound J]
Eox (V) [4]: −0.15 V | Ered (V) [4]: −0.23 V | EO′ (V) [(Ered + Eox)/2] [4]: −0.19 V | solubility ([5]; read-out: Solubility in water): 50 mM

O=C1C(=O)c2cc(S(=O)(=O)[O-])ccc2-c2ccc(S(=O)(=O)[O-])cc21.[Na+].[Na+] [Disodium 9,10-phenanthrenequinone-2,7-disulfonate]
Eox (V) [4]: −0.06 V | Ered (V) [4]: −0.18 V | EO′ (V) [(Ered + Eox)/2] [4]: −0.12 V | Solubility in water [5]: ≥200 mM

NCCN [Ethylenediamine, reference compound]
Sensor stability % change in response current value between before and after 24 hours exposure at 30° C. and 80% humidity [1]: −45% | Reagent solution stability % change in response current value between before and after 24 hours storage at 25° C. [2]: −3%

Cc1cc2nc3c(=O)[nH]c(=O)nc-3n(C[C@H](O)[C@H](O)[C@H](O)COP(=O)(O)OP(=O)(O)OC[C@H]3O[C@@H](n4cnc5c(N)ncnc54)[C@H](O)[C@@H]3O)c2cc1C [FAD, flavin adenine dinucleotide]
redox potential [6]: approximately −300 mV

NCCc1c[nH]cn1 [Histamine]
change in the response current value after the exposure test [1]: relatively small change in the response current value | Sensor stability % change in response current value between before and after 24 hours exposure at 30° C. and 80% humidity [1]: −3% | Reagent solution stability % change in response current value between before and after 24 hours storage at 25° C. [2]: −2%

N[C@@H](Cc1c[nH]cn1)C(=O)O [Histidine]
change in the response current value after the exposure test [1]: relatively small change in the response current value | Sensor stability % change in response current value between before and after 24 hours exposure at 30° C. and 80% humidity [1]: −12% | Reagent solution stability % change in response current value between before and after 24 hours storage at 25° C. [2]: −7%

NCCCC[C@H](N)C(=O)O [Lysine, reference compound]
Sensor stability % change in response current value between before and after 24 hours exposure at 30° C. and 80% humidity [1]: −31% | Reagent solution stability % change in response current value between before and after 24 hours storage at 25° C. [2]: −20%

O=C(O)c1cc(C(=O)O)c2c(n1)C(=O)C(=O)c1cc(C(=O)O)[nH]c1-2 [PQQ, pyrroloquinoline quinone]
redox potential [6]: approximately −200 mV

O=C1C(=O)c2cc(S(=O)(=O)[O-])ccc2-c2ccccc21.[Na+] [Sodium 9,10-phenanthrenequinone-2-sulfonate]
Eox (V) [4]: −0.12 V | Ered (V) [4]: −0.18 V | EO′ (V) [(Ered + Eox)/2] [4]: −0.15 V | solubility [5]: 80 mM

O=C1O[C@H]([C@@H](O)CO)C(O)=C1O [ascorbic acid]
oxidation potential ([6]; interfering substance, background value): approximately −140 mV

O=C1C(=O)c2cccnc2-c2ncccc21 [phenanthroline quinone]
redox potential [6]: approximately 0 mV

Ethyleneamine [reference compound]
Sensor stability % change in response current value between before and after 24 hours exposure at 30° C. and 80% humidity [1]: −77%
